# Earlier results, collected in patent US7989405B2, “Prevention of microbial growth in metal working fluids” (Illinois Tool Works Inc., priority 2001, dated 2011).
# Experiments:
# Aspergillus niger = conditions: Fungal: Aspergillus niger
# Enterobacter aerogenes = conditions: Bacterial: Enterobacter aerogenes
# Pseudomonas aeruginosa = conditions: Bacterial: Pseudomonas aeruginosa
# Saccharomyces cerevisiae = conditions: Fungal: Saccharomyces cerevisiae
# Escherischia coli = conditions: Bacterial: Escherischia coli
# Fusarium moniliforme = conditions: Fungal: Fusarium moniliforme
# Staphylococcus aureus = conditions: Bacterial: Staphylococcus aureus
structure (smiles),measurement,setting,value
"CCC12COCN1COC2 [Bioban CS-1246, 7a-ethyldihydro-1H,3H,5H-oxazolo(3,4-c)oxazole]",MIC,Aspergillus niger,65-125 parts per million
same,MIC,Enterobacter aerogenes,250-300 parts per million
same,MIC,Pseudomonas aeruginosa,800-850 parts per million
same,MIC,Saccharomyces cerevisiae,16-33 parts per million
same,MIC,Escherischia coli,450-500 parts per million
same,MIC,Fusarium moniliforme,125-250 parts per million
same,MIC,Staphylococcus aureus,200-250 parts per million
same,irritation of eyes and skin,as supplied,irritating to eyes and skin
same,mutagenicity,as supplied,non-mutagenic
same,sensitisation,as supplied,not a sensitising agent
same,toxicity by inhalation and skin contact,as supplied,harmful by inhalation and in contact with the skin
same,hazard,at typical use dilutions,no hazard
